Source: US8048458B2, “Saponin and preservative compositions for reduction of protozoa” (Sartec Corporation, priority 2006, dated 2011)

Test system: protozoa
Experiment: In vitro treatment of washed rumen protozoa: cell count and Live/Dead stain, % killed
Type: cell-based, rumen protozoa from a Holstein-Friesian cow
Settings: Yucca 1000 ppm where + Y, 2 hours, 39° C.; for % Viable: Live/Dead BacLight Stain; for % Killed by Treatment: standardized to blank
Experimental: Rumen contents were obtained from a rumen cannulated Holstein-Friesian cow 10 hours post-prandial. […] Sedimented protozoa were aspirated to fresh CBD and washed twice with warm CBD. Protozoa were resuspended in warm CBD.
Crude yucca was diluted in water to the desired concentration. […] Ethoxyquin was diluted in absolute ethanol to obtain concentrations which correspond to field concentrations of 0.5 g, 1.0 g and 1.5 g.
Experimental treatments were as follows:
Individual treatment tubes were flushed with carbon dioxide prior to sealing and placement at 39° C. for 2 hours with occasional mixing by tube inversion.
Total number of protozoa present in each treatment was determined on the formalin fixed preparation and on the corresponding sample the percentage of live protozoa as indicated by the Live/Dead® BacLight Stain was also determined.
[…] was determined by multiplying the percent of live protozoa by the total protozoa present in each treatment. […] The number of viable protozoa for each treatment was then subtracted from the number of viable protozoa present in the blank (control) treatment. The difference is the number killed by the corresponding treatment. The treatments were then standardized to the blank by calculating a percentage killed by treatment.

[1] = EQ 51.6 ug in vitro (0.5 g/head in vivo)
[2] = EQ 103 ug in vitro (1 g/head in vivo)
[3] = EQ 154 ug in vitro (1.5 g/head in vivo)

CCOc1ccc2c(c1)C(C)=CC(C)(C)N2 [EQ, 1,2-dihydro-6-ethoxy-2,2,4-trimethylquinoline]
# Live [1]: 7.13E+04 | % Killed by Treatment using Ethanol control as Baseline [1]: 23% | Cell count [1]: 8.80E+04 | % Viable [1]: 81% | % Killed by Treatment [1]: 18% | # Live [2]: 7.35E+04 | % Killed by Treatment using Ethanol control as Baseline [2]: 20% | Cell count [2]: 9.30E+04 | % Viable [2]: 79% | % Killed by Treatment [2]: 16% | # Live [3]: 5.40E+04 | % Killed by Treatment using Ethanol control as Baseline [3]: 41% | Cell count [3]: 9.00E+04 | % Viable [3]: 60% | % Killed by Treatment [3]: 38%
